Test results from patent US20230391845A1, “GLP-1, GIP AND GLUCAGON RECEPTOR TRIPLE AGONISTS” (priority 2020, published 2023).
*1 amine or outer side, *2 acyl side, *3 side chain or, on linkers, in order; H or OH if unused. Where a SMILES comes first, the peptide text is derived from it. Side-chain parts run from the residue outwards. [ ]: non-standard residue; d: D form. The star is where a group is joined. X1 = O=C(O)CCCCCCCCCCCCCCCCCCC(=O)NCC1CCC(C(=O)*)CC1; C20 diacid = O=C(O)CCCCCCCCCCCCCCCCCCC(=O)*; C18 diacid = O=C(O)CCCCCCCCCCCCCCCCC(=O)*; γGlu = O=C(O)[C@H](CCC(=O)[*:2])N[*:1]; εLys = N[C@@H](CCCCN[*:1])C(=O)[*:2]; AEEA = NCCOCCOCC(=O)O; Aib = CC(C)(N)C(=O)O

Assay: Pharmacokinetic study in minipigs, i.v. administration
Set-up: species or system Göttingen minipigs
Details: female, Göttingen, minipig, in vivo, iv
Protocol: The purpose of this example is to determine the half-life in vivo of the triple agonists as described herein after i.v. administration to minipigs, i.e. the prolongation of their time in the body and thereby their time of action. This is done in a pharmacokinetic (PK) study, where the terminal half-life of the triple agonist in question is determined. By terminal half-life is generally meant the period of time it takes to halve a certain plasma concentration, measured after the initial distribution phase.
Female Göttingen minipigs were obtained from Ellegaard Göttingen Minipigs (Dalmose, Denmark) approximately 7-14 months of age and weighing from approximately 16-35 kg were used in the studies. The minipigs were housed individually and fed restrictedly once daily with SDS minipig diet (Special Diets Services, Essex, UK).
After at 3 weeks of acclimatisation two permanent central venous catheters were implanted in vena cava caudalis in each animal. The animals were allowed 1 week recovery after the surgery, and were then used for repeated pharmacokinetic studies with a suitable wash-out period between successive dosings.
The animals were fasted for approximately 18 hours before dosing and from 0 to 4 hours after dosing, but had adlibitum access to water during the whole period.
Intravenous injections (the volume corresponding to usually 1.5-2 nmol/kg, for example 0.1 mL/kg) of the triple agonists were given through one catheter, and blood was sampled at predefined time points for up to 14 days post dosing (preferably through the other catheter). Blood samples (for example 0.8 mL) were collected in 8 mM EDTA buffer and then centrifuged at 4° C. and 1942 g for 10 minutes.
Plasma was pipetted into Micronic tubes on dry ice and kept at −20° C. until analysed for plasma concentration of the triple agonists using ELISA, or a similar antibody-based assay, or LCMS. Individual plasma concentration-time profiles were analysed by a non-compartmental model in Phoenix WinNonLin ver. 6.4. (Pharsight Inc., Mountain View, CA, USA), and the resulting terminal half-lives (harmonic mean) determined.

| Compound | half-life [h] |
| --- | --- |
| CC[C@H](C)[C@H](NC(=O)[C@H](CO)NC(=O)[C@H](Cc1ccc(O)cc1)NC(=O)[C@H](CC(=O)O)NC(=O)[C@H](CO)NC(=O)[C@@H](NC(=O)[C@H](Cc1ccccc1)NC(=O)[C@@H](NC(=O)CNC(=O)[C@H](CCC(N)=O)NC(=O)C(C)(C)NC(=O)[C@@H](N)Cc1ccc(O)cc1)[C@@H](C)O)[C@@H](C)O)C(=O)N[C@@H](Cc1ccc(O)cc1)C(=O)N[C@@H](CC(C)C)C(=O)N[C@@H](CC(=O)O)C(=O)N[C@@H](CCCCN)C(=O)N[C@@H](CCC(N)=O)C(=O)N[C@@H](C)C(=O)N[C@@H](C)C(=O)NC(C)(C)C(=O)N[C@@H](CCCCNC(=O)COCCOCCNC(=O)COCCOCCNC(=O)CC[C@H](NC(=O)CCCCCCCCCCCCCCCCCCC(=O)O)C(=O)O)C(=O)N[C@@H](Cc1ccccc1)C(=O)N[C@H](C(=O)N[C@@H](CCC(N)=O)C(=O)N[C@@H](Cc1c[nH]c2ccccc12)C(=O)N[C@@H](CC(C)C)C(=O)N[C@@H](CC(C)C)C(=O)N[C@@H](CCC(=O)O)C(=O)NCC(=O)NCC(=O)N1CCC[C@H]1C(=O)N[C@@H](CO)C(=O)N[C@@H](CO)C(=O)NCC(=O)N[C@@H](C)C(=O)N1CCC[C@H]1C(=O)N1CCC[C@H]1C(=O)N1CCC[C@H]1C(=O)N[C@@H](CO)C(N)=O)C(C)C [Compound No. 7] (H-Y[Aib]QGTFTSDYSIYLDKQAA[Aib]K([AEEA-AEEA-γGlu-C20 diacid])FVQWLLEGGPSSGAPPPS-NH2; N-terminus assumed) | 79 |
| CC(C)C[C@H](NC(=O)[C@H](CC(C)C)NC(=O)[C@H](Cc1c[nH]c2ccccc12)NC(=O)[C@H](CCC(N)=O)NC(=O)[C@@H](NC(=O)[C@H](Cc1ccccc1)NC(=O)[C@H](CCC(=O)O)NC(=O)C(C)(C)NC(=O)[C@H](C)NC(=O)[C@H](C)NC(=O)[C@H](CCC(N)=O)NC(=O)[C@H](CCCCNC(=O)[C@@H](N)CCCCNC(=O)[C@@H](N)CCCCNC(=O)CC[C@H](NC(=O)CCCCCCCCCCCCCCCCC(=O)O)C(=O)O)NC(=O)[C@H](CCC(=O)O)NC(=O)[C@H](CC(C)C)NC(=O)[C@H](Cc1ccc(O)cc1)NC(=O)[C@H](Cc1ccc(O)cc1)NC(=O)[C@H](CO)NC(=O)[C@H](Cc1ccc(O)cc1)NC(=O)[C@H](CC(=O)O)NC(=O)[C@H](CO)NC(=O)[C@@H](NC(=O)[C@H](Cc1ccccc1)NC(=O)[C@@H](NC(=O)CNC(=O)[C@H](Cc1c[nH]cn1)NC(=O)C(C)(C)NC(=O)[C@@H](N)Cc1c[nH]cn1)[C@@H](C)O)[C@@H](C)O)C(C)C)C(=O)N[C@@H](CCC(=O)O)C(=O)NCC(=O)NCC(=O)N1CCC[C@H]1C(=O)N[C@@H](CO)C(=O)N[C@@H](CO)C(=O)NCC(=O)N[C@@H](C)C(=O)N1CCC[C@H]1C(=O)N1CCC[C@H]1C(=O)N1CCC[C@H]1C(=O)N[C@@H](CO)C(N)=O [Compound No. 32] (H-H[Aib]HGTFTSDYSYYLEK([εLys-εLys-γGlu-C18 diacid])QAA[Aib]EFVQWLLEGGPSSGAPPPS-NH2) | 52 |
| CC(C)C[C@H](NC(=O)[C@H](CC(C)C)NC(=O)[C@H](Cc1c[nH]c2ccccc12)NC(=O)[C@H](CCC(N)=O)NC(=O)[C@@H](NC(=O)[C@H](Cc1ccccc1)NC(=O)[C@H](CCC(=O)O)NC(=O)C(C)(C)NC(=O)[C@H](C)NC(=O)[C@H](C)NC(=O)[C@H](CCC(N)=O)NC(=O)[C@H](CCCCNC(=O)[C@@H](N)CCCCNC(=O)[C@@H](N)CCCCNC(=O)CC[C@H](NC(=O)CCCCCCCCCCCCCCCCCCC(=O)O)C(=O)O)NC(=O)[C@H](CCC(=O)O)NC(=O)[C@H](CC(C)C)NC(=O)[C@H](CC(C)C)NC(=O)[C@H](Cc1ccc(O)cc1)NC(=O)[C@H](CO)NC(=O)[C@H](Cc1ccc(O)cc1)NC(=O)[C@H](CC(=O)O)NC(=O)[C@H](CO)NC(=O)[C@@H](NC(=O)[C@H](Cc1ccccc1)NC(=O)[C@@H](NC(=O)CNC(=O)[C@H](Cc1c[nH]cn1)NC(=O)C(C)(C)NC(=O)[C@@H](N)Cc1c[nH]cn1)[C@@H](C)O)[C@@H](C)O)C(C)C)C(=O)N[C@@H](CCC(=O)O)C(=O)NCC(=O)NCC(=O)N1CCC[C@H]1C(=O)N[C@@H](CO)C(=O)N[C@@H](CO)C(=O)NCC(=O)N[C@@H](C)C(=O)N1CCC[C@H]1C(=O)N1CCC[C@H]1C(=O)N1CCC[C@H]1C(=O)N[C@@H](CO)C(N)=O [Compound No. 42] (H-H[Aib]HGTFTSDYSYLLEK([εLys-εLys-γGlu-C20 diacid])QAA[Aib]EFVQWLLEGGPSSGAPPPS-NH2; N-terminus assumed) | 66 |

Same assay, conditions: minipig, in vivo, iv

| Compound | half-life [h] |
| --- | --- |
| CC[C@H](C)[C@H](NC(=O)[C@H](CO)NC(=O)[C@H](Cc1ccc(O)cc1)NC(=O)[C@H](CC(=O)O)NC(=O)[C@H](CO)NC(=O)[C@@H](NC(=O)[C@H](Cc1ccccc1)NC(=O)[C@@H](NC(=O)CNC(=O)[C@H](CCC(N)=O)NC(=O)C(C)(C)NC(=O)[C@@H](N)Cc1ccc(O)cc1)[C@@H](C)O)[C@@H](C)O)C(=O)N[C@@H](Cc1ccc(O)cc1)C(=O)N[C@@H](CC(C)C)C(=O)N[C@@H](CC(=O)O)C(=O)N[C@@H](CCCCNC(=O)COCCOCCNC(=O)COCCOCCNC(=O)CC[C@H](NC(=O)C1CCC(CNC(=O)CCCCCCCCCCCCCCCCCCC(=O)O)CC1)C(=O)O)C(=O)N[C@@H](CCC(N)=O)C(=O)N[C@@H](C)C(=O)N[C@@H](C)C(=O)NC(C)(C)C(=O)N[C@@H](CCC(=O)O)C(=O)N[C@@H](Cc1ccccc1)C(=O)N[C@H](C(=O)N[C@@H](CC(N)=O)C(=O)N[C@@H](Cc1c[nH]c2ccccc12)C(=O)N[C@@H](CC(C)C)C(=O)N[C@@H](CC(C)C)C(=O)N[C@@H](C)C(=O)NCC(=O)NCC(=O)N1CCC[C@H]1C(=O)N[C@@H](CO)C(=O)N[C@@H](CO)C(=O)NCC(=O)N[C@@H](C)C(=O)N1CCC[C@H]1C(=O)N1CCC[C@H]1C(=O)N1CCC[C@H]1C(=O)N[C@@H](CO)C(N)=O)C(C)C (stereo partly drawn) [Compound No. 6] (H-Y[Aib]QGTFTSDYSIYLDK([AEEA-AEEA-γGlu-X1])QAA[Aib]EFVNWLLAGGPSSGAPPPS-NH2) | 83 |
| CC[C@H](C)[C@H](NC(=O)[C@H](CO)NC(=O)[C@H](Cc1ccc(O)cc1)NC(=O)[C@H](CC(=O)O)NC(=O)[C@H](CO)NC(=O)[C@@H](NC(=O)[C@H](Cc1ccccc1)NC(=O)[C@@H](NC(=O)CNC(=O)[C@H](CCC(N)=O)NC(=O)C(C)(C)NC(=O)[C@@H](N)Cc1ccc(O)cc1)[C@@H](C)O)[C@@H](C)O)C(=O)N[C@@H](Cc1ccc(O)cc1)C(=O)N[C@@H](CC(C)C)C(=O)N[C@@H](CC(=O)O)C(=O)N[C@@H](CCCCN)C(=O)N[C@@H](CCC(N)=O)C(=O)N[C@@H](C)C(=O)N[C@@H](C)C(=O)NC(C)(C)C(=O)N[C@@H](CCCCNC(=O)COCCOCCNC(=O)COCCOCCNC(=O)CC[C@H](NC(=O)C1CCC(CNC(=O)CCCCCCCCCCCCCCCCCCC(=O)O)CC1)C(=O)O)C(=O)N[C@@H](Cc1ccccc1)C(=O)N[C@H](C(=O)N[C@@H](CCC(N)=O)C(=O)N[C@@H](Cc1c[nH]c2ccccc12)C(=O)N[C@@H](CC(C)C)C(=O)N[C@@H](CC(C)C)C(=O)N[C@@H](CCC(=O)O)C(=O)NCC(=O)NCC(=O)N1CCC[C@H]1C(=O)N[C@@H](CO)C(=O)N[C@@H](CO)C(=O)NCC(=O)N[C@@H](C)C(=O)N1CCC[C@H]1C(=O)N1CCC[C@H]1C(=O)N1CCC[C@H]1C(=O)N[C@@H](CO)C(N)=O)C(C)C (stereo partly drawn) [Compound No. 8] (H-Y[Aib]QGTFTSDYSIYLDKQAA[Aib]K([AEEA-AEEA-γGlu-X1])FVQWLLEGGPSSGAPPPS-NH2; N-terminus assumed) | 81 |
| CC(C)C[C@H](NC(=O)[C@H](CC(C)C)NC(=O)[C@H](Cc1c[nH]c2ccccc12)NC(=O)[C@H](CCC(N)=O)NC(=O)[C@@H](NC(=O)[C@H](Cc1ccccc1)NC(=O)[C@H](CCC(=O)O)NC(=O)C(C)(C)NC(=O)[C@H](C)NC(=O)[C@H](C)NC(=O)[C@H](CCC(N)=O)NC(=O)[C@H](CCCCNC(=O)[C@@H](N)CCCCNC(=O)[C@@H](N)CCCCNC(=O)CC[C@H](NC(=O)C1CCC(CNC(=O)CCCCCCCCCCCCCCCCCCC(=O)O)CC1)C(=O)O)NC(=O)[C@H](CCC(=O)O)NC(=O)[C@H](CC(C)C)NC(=O)[C@H](Cc1ccc(O)cc1)NC(=O)[C@H](Cc1ccc(O)cc1)NC(=O)[C@H](CO)NC(=O)[C@H](Cc1ccc(O)cc1)NC(=O)[C@H](CC(=O)O)NC(=O)[C@H](CO)NC(=O)[C@@H](NC(=O)[C@H](Cc1ccccc1)NC(=O)[C@@H](NC(=O)CNC(=O)[C@H](Cc1c[nH]cn1)NC(=O)C(C)(C)NC(=O)[C@@H](N)Cc1c[nH]cn1)[C@@H](C)O)[C@@H](C)O)C(C)C)C(=O)N[C@@H](CCC(=O)O)C(=O)NCC(=O)NCC(=O)N1CCC[C@H]1C(=O)N[C@@H](CO)C(=O)N[C@@H](CO)C(=O)NCC(=O)N[C@@H](C)C(=O)N1CCC[C@H]1C(=O)N1CCC[C@H]1C(=O)N1CCC[C@H]1C(=O)N[C@@H](CO)C(N)=O (stereo partly drawn) [Compound No. 25] (H-H[Aib]HGTFTSDYSYYLEK([εLys-εLys-γGlu-X1])QAA[Aib]EFVQWLLEGGPSSGAPPPS-NH2; N-terminus assumed) | 79 |
